Entries after “also recorded” stand apart in the source; their conditions may differ. Like-named read-outs stand apart in the source and are kept apart here. Each block holds one molecule with its values, some of them ahead of it.
Experiments:
Assay type in all cases: cell-based
[1] = molecular target: T1, full-length mGluR2 (SNAP-mGluR2) (Rattus norvegicus, UniProt P31421); test: GIRK activation assay, whole cell patch clamp, HEK 293T cells expressing full-length mGluR2; conditions: for effect on basal GIRK current in the absence of glutamate: NAM alone, HEK 293T cells expressing GIRK and full-length mGluR2
T1 construct: HEK 293T cells expressing full-length mGluR2; expressed in transfected cells; host or cells: HEK 293T
T1 sequence (P31421 19-872): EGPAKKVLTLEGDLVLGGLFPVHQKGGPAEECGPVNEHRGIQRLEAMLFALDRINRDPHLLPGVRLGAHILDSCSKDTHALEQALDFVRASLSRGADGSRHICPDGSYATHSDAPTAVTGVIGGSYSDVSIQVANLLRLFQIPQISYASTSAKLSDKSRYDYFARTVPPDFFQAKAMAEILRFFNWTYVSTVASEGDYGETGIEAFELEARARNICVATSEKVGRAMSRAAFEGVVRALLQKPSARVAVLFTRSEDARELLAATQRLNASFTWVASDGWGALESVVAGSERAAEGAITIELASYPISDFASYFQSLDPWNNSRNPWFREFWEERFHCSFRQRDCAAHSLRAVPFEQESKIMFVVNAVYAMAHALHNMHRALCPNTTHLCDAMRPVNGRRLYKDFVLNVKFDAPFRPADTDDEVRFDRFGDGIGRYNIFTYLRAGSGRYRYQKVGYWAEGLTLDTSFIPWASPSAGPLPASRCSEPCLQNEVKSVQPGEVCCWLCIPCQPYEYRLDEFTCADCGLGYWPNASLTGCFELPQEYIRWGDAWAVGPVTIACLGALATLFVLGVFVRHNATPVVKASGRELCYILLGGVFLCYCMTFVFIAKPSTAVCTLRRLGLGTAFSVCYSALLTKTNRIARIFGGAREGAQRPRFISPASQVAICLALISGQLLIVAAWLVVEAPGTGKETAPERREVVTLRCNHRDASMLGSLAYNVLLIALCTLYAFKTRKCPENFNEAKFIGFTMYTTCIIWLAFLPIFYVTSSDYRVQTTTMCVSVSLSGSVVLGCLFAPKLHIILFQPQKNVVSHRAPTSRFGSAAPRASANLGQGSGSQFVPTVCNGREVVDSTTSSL
Procedure: (§1) Cells were cultured in DMEM with 5% FBS on poly-L-lysine-coated glass coverslips. DNA plasmids were transfected into cells using Lipofectamine 3000 (Thermo Fisher). […] For single-molecule pulldown (SiMPull) experiments, cells were transfected with 0.7 μg DNA of HA and SNAP-tagged receptor constructs, unless otherwise noted.
Whole-cell patch clamp recordings from single isolated cells were performed 24–36 hr after transfection in a high-potassium extracellular solution containing (in mM): 120 KCl, 29 NaCl, 1 MgCl2, 2 CaCl2 and 10 HEPES, pH 7.4. Cells were voltage clamped to −60 mV using an Axopatch 200B amplifier (Axon Instruments) and membrane currents were recorded. Glass pipettes of resistance between 3 and 8 MΩ were filled with intracellular solution containing (in mM): 140 KCl, 10 HEPES, 3 Na2ATP, 0.2 Na2GTP, 5 EGTA and 3 MgCl2, pH 7.4. Data were acquired with a 2 kHz acquisition rate and filtered with the amplifier 4-pole Bessel filter at 1 kHz. Drugs were prepared in extracellular solution and applied using a gravity-driven perfusion system. Data were analyzed with Clampfit (Molecular Devices) and Prism (GraphPad). Data for all conditions came from at least two separate transfections.

SNAP-mGluR2-TMD = molecular target: T2, SNAP-mGluR2-TMD (Rattus norvegicus, UniProt P31421); test: Inter-TMD FRET assay in living HEK 293T cells; conditions: for EC50: normalized to saturating LY48; for inter-TMD FRET response to drug alone: drug applied alone, XA up to 50 µM
T2 construct: mGluR2-TMD (rat) starts at Q558; expressed in transfected cells; host or cells: HEK 293T
T2 sequence (P31421 558-872 limits assumed): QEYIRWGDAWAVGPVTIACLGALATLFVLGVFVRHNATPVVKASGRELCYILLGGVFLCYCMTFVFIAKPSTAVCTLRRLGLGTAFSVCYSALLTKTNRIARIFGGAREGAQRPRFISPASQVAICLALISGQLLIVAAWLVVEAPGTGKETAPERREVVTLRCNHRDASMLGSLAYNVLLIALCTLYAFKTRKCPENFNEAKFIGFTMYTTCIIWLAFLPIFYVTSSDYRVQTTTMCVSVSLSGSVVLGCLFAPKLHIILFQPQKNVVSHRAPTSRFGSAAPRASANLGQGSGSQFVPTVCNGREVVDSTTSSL
Source text: We therefore sought to develop a FRET sensor that reports on activation-associated motions driven by allosteric drugs and hypothesized that an N-terminal fluorophore on the isolated TMD should report on any inter-TMD rearrangement while allowing the receptor to maintain G-protein coupling (Figure 3A). […] To test if LBD-independent inter-TMD rearrangement is a feature of other mGluRs, we asked if donor and acceptor conjugation to SNAP-mGluR5-TMD would allow for the detection a FRET response to a PAM.
as §1, with “noted. For FRET experiments, cells were transfected with either SNAP-tagged constructs at 0.5–0.7 μg of DNA/well or SNAP and CLIP-tagged constructs at a ratio of 1:2 with 0.3 μg of SNAP DNA/well.” for “noted.”
(§2) Fluorophores were diluted in EX solution, which was also used to wash coverslips following labeling and prior to mounting on the microscope. After labeling, cells were mounted on an inverted microscope (Olympus IX73) and imaged with a 60x objective. […] Clusters of cells were analyzed together using ImageJ and FRET was calculated as FRET=(IAcceptor)/(IDonor +IAcceptor) where I is fluorescence intensity. No corrections were made for bleed-through between channels or the contribution of donor-donor or acceptor-acceptor dimers as analysis was limited to relative FRET changes between drug treatments rather than absolute FRET values. […] FRET changes calculated for dose–response curves were normalized to the response to saturating […] applied within the same recording and dose–response curves were obtained from multiple cell clusters and averaged from at least three separate experiments. Dose–response curves were fit using Prism (Graphpad). All drugs were purchased from Tocris, prepared in EX solution, and delivered with a gravity-driven perfusion system. For kinetics measurements a pressurized perfusion system (Automate Scientific) was used to produce a flow rate of 0.5 mL/s. Kinetic analysis was performed in Microsoft Excel. The time between 10% and 90% FRET increase or decrease was determined manually. For photo-bleaching/donor-recovery experiments, images were taken in donor and acceptor channels at baseline and again followed by a 1 min exposure to 640 nm laser illumination at maximum intensity. All experiments were performed at room temperature. All data were produced from at least two separate transfections for each condition.

[2] = molecular target: T3, SNAP-mGluR2 (full-length) (Rattus norvegicus, UniProt P31421); test: Inter-LBD FRET assay with full-length SNAP-mGluR2; conditions: saturating concentrations; for direct effect on inter-LBD FRET (no orthosteric agonist for modulators): drug applied alone; for effect on inter-LBD FRET response to DCG-IV: agonist DCG-IV
T3 construct: HEK 293T cells expressing full-length mGluR2; expressed in transfected cells; host or cells: HEK 293T
T3 sequence (P31421 19-872): as the sequence (P31421 19-872) above
Source text: We next sought to further probe the variation in PAM-induced inter-TMD FRET changes. […] We used an inter-LBD FRET assay to assess the relative strength of allosteric modulation by different mGluR2 PAMs. Agonists induce a decrease in FRET between fluorophore-conjugated N-terminal SNAP- and CLIP-tags (Figure 4E). […] We tested this effect for all PAMs by applying a saturating concentration of DCG-IV followed by co-application of a saturating concentration of each PAM, which produced further FRET decreases (Figure 4F,G).
as §2

[3] = SNAP-mGluR2-TMD labeled with donor and acceptor, mean ± s.e.m., read-out: inter-TMD FRET increase EC50

highest concentration that did not produce a GIRK response on its own ([1]; full-length mGluR2): 50 nM
reversibility of GIRK currents after washout ([1]; full-length mGluR2, up to 10 min of washout): fully-reversible currents
EC50 ([1]; mGluR2-WT, read-out: GIRK activation EC50 (approximate)): ~300 nM
maximal PAM-induced GIRK activation relative to glutamate ([1]; mGluR2-WT, relative to saturating glutamate): ~ 70%
GIRK current time 10% to 90% ([1]; saturating: 10 µM LY48, 1 mM Glutamate): 14.3 ± 3.5 s
EC50 ([1]; wild-type SNAP-mGluR2, HEK 293T, PAM alone, normalized to saturating glutamate, mean ± s.e.m., read-out: GIRK activation EC50): 230 ± 40 nM
EC50 (SNAP-mGluR2-TMD; SNAP- and CLIP-mGluR2-TMD co-expressed, read-out: inter-TMD FRET increase EC50, co-expression of SNAP- and CLIP-mGluR2-TMD): 900 ± 100 nM
EC50 (SNAP-mGluR2-TMD; [3]): 1200 ± 100 nM
EC50 (SNAP-mGluR2-TMD; co-expression of dominant negative Gα protein, read-out: inter-TMD FRET increase EC50 with dominant negative G protein): 600 ± 40 nM
inter-TMD FRET response to drug alone (SNAP-mGluR2-TMD): readily detectable FRET increase
inter-TMD FRET response onset (SNAP-mGluR2-TMD; saturating concentrations): 10 to 40 s
inter-TMD FRET response reversal (SNAP-mGluR2-TMD; saturating concentrations): < 2 min
Compound: COc1ccccc1Oc1ccc(N(Cc2cccnc2)S(=O)(=O)CC(F)(F)F)cc1 [LY48]
effect on the glutamate-sensitivity of mGluR2 (GIRK) ([1]; 50 nM LY48): no effect on the glutamate-sensitivity of mGluR2
direct effect on inter-LBD FRET (no orthosteric agonist for modulators) [2]: no effect on FRET level; also recorded: unable to directly induce LBD closure

effect on basal GIRK current in the absence of glutamate [1]: no effect on basal current
effect of co-application on LY48-induced GIRK activation ([1]; co-applied with LY48, saturating concentration for LY341495): blocked
effect on LY48-induced inter-TMD FRET response (SNAP-mGluR2-TMD; NAM versus LY48): blocked
effect on Ro 64-induced inter-TMD FRET increase (SNAP-mGluR2-TMD; applied after Ro 64): partially reverse
inter-TMD FRET response to drug alone (SNAP-mGluR2-TMD): minimal FRET changes
direct effect on inter-LBD FRET (no orthosteric agonist for modulators) [2]: did not alter the basal inter-LBD FRET
effect on inter-LBD FRET response to DCG-IV [2]: partial antagonism
Compound: N#Cc1cc(C2=Nc3ccc(Br)cc3NC(=O)C2)ccn1 [MNI 137]
effect on BINA-induced inter-TMD FRET increase (SNAP-mGluR2-TMD; applied after BINA): reversed the BINA-induced FRET increase back to baseline

effect on basal GIRK current in the absence of glutamate [1]: small but clear outward current
inter-TMD FRET OFF kinetics (SNAP-mGluR2-TMD): very slow OFF kinetics
EC50 (SNAP-mGluR2-TMD; [3]): 2100 ± 200 nM
direct effect on inter-LBD FRET (no orthosteric agonist for modulators) [2]: did not alter the basal inter-LBD FRET
effect on inter-LBD FRET response to DCG-IV [2]: partial antagonism
Compound: Clc1cccc(Cl)c1/C(=C/n1cncn1)OC1CCCCCC1 [Ro 64]
inter-TMD FRET response to drug alone (SNAP-mGluR2-TMD): robust, dose-dependent inter-TMD FRET increases

From publication PMC6588349 (eLife, 2019)
